The values that follow come from US3974152A, “3-Ethyl- and 3-(2'cyanoethyl)-cephalosporins” (Glaxo Laboratories Limited, priority 1970, dated 1976).

Data set [1] deals with STAPH AUREUS 11127. Kind of data set: Mouse Protection, STAPH AUREUS 11127. It counts as in vivo. To be noted: Staphylococcus aureus.
The test system of data set [2] is STAPH AUREUS 604. Description: Tube Dilution Assay, STAPH AUREUS 604. It is filed as cell-based. To be noted: Staphylococcus aureus; read-out: Tube Dilution Assay, gram positive, STAPH AUREUS 604.
For data set [3], the system named is STAPH AUREUS 663. Description: Tube Dilution Assay, STAPH AUREUS 663. It is filed as cell-based. Conditions: Staphylococcus aureus; read-out: Tube Dilution Assay, gram positive, STAPH AUREUS 663.
In data set [4] the test system is S. TYPHIMURIUM 804. Kind of data set: Tube Dilution Assay, S. TYPHIMURIUM 804. It is filed as cell-based. To be noted: Salmonella enterica, read-out: Tube Dilution Assay, gram negative, S. TYPHIMURIUM 804.
Data set [5] in a line: R.O.U.R.: recovery of the antibiotic from the urine of female rats following oral administration. It counts as in vivo. To be noted: rat. The text has this:
*R.O.U.R. = % recovery of the antibiotic from the urine of female rats
following oral administration of the antibiotic.

The test system of data set [6] is STAPH AUREUS 3452. Description: Tube Dilution Assay, STAPH AUREUS 3452. It is filed as cell-based. Conditions: Staphylococcus aureus; read-out: Tube Dilution Assay, gram positive, STAPH AUREUS 3452.
Data set [7] deals with STAPH AUREUS 11127. Description: Tube Dilution Assay, STAPH AUREUS 11127. Conditions: Staphylococcus aureus; read-out: Tube Dilution Assay, gram positive, STAPH AUREUS 11127. It is filed as cell-based.
Data set [8] deals with PR. MIRABILIS 431. Kind of data set: Tube Dilution Assay, PR. MIRABILIS 431. It counts as cell-based. To be noted: Proteus mirabilis; read-out: Tube Dilution Assay, gram negative, PR. MIRABILIS 431.
Data set [9] has as its system E. COLI 573. Kind of data set: Tube Dilution Assay, E. COLI 573. It counts as cell-based. To be noted: Escherichia coli; read-out: Tube Dilution Assay, gram negative, E. COLI 573.
Data set [10] is described as follows: animal tests of degradation in vivo.
Data set [11] can be described thus: activity on oral administration. It is filed as in vivo.
Data set [12] deals with gram-positive and gram-negative organisms. Kind of data set: in vitro antibacterial tests. It counts as cell-based.
Data set [13] in a line: absorption and blood levels by the oral route. It counts as in vivo.

As usually defined, the ED50 is the dose at which the effect has come halfway, by size or by number of responders.

≈ marks a conversion by molar mass, not a printed value.

Molecule `CCC1=C(C(=O)O)N2C(=O)[C@@H](NC(=O)[C@H](N)c3ccccc3)[C@H]2SC1.O=C(O)C(F)(F)F` [1(d), 7β-(D-2-Amino-2-phenylacetamido)-3-ethylceph-3-em-4-carboxylic acid, Trifluoroacetic Acid Salt] returned a median effective dose (ED50) in [1] below 6 mg/kg. Further, the MIC in data set [2] came to 1.6 mg/L; in data set [3], 0.3 mg/L; in [4], 16 mg/L; in data set [6], 1.6 mg/L; in data set [7], 0.08 mg/L; in data set [8] it was 16 mg/L. Also, the MIC in data set [9] was determined as 8 mg/L. The molecule also returned a dose excreted in data set [5] of 45%.

As for `N#CCCC1=C(C(=O)O)N2C(=O)[C@@H](NC(=O)Cc3cccs3)[C@H]2SC1` [2(c), 3-(2-Cyanoethyl)-7β-(2-thienylacetamido)ceph-3-em-4-carboxylic acid], the MIC in [2] was found to be 1.25 mg/L (≈ 3.31 µM); in [3] it was 0.08 mg/L (≈ 0.212 µM); in data set [4], 16 mg/L (≈ 42.4 µM); in data set [6], 4 mg/L (≈ 10.6 µM); in data set [7], 1 mg/L (≈ 2.65 µM); in data set [8] it was 31 mg/L (≈ 82.1 µM). The MIC in data set [9] was 62 mg/L (≈ 164 µM). In data set [5], this molecule came in with a dose excreted of 2.1%.

For the molecule `CCC1=C(C(=O)O)N2C(=O)[C@@H](NC(=O)[C@H](N)c3ccccc3)[C@H]2SC1` [Example 4(b), 7β-(D-2-Amino-2-phenylacetamido)-3-ethylceph-3-em-4-carboxylic acid], the degradation in vivo entry in data set [10] is reported as “substantially resistant to degradation in vivo”. In [11], the “activity on oral administration” value was “appreciable level of activity”. For the same molecule, the “activity against gram-positive and gram-negative organisms” value in data set [12] was “active against gram-positive and gram-negative organisms”. For the same molecule, in data set [13], the “absorption by the oral route” value is recorded as “well absorbed” and the blood levels result is recorded as “good blood levels”.
